Results taken from ChEMBL document CHEMBL1201862, “PubChem BioAssay data set” (2004).
Active and inactive are the calls of the source.

Columns and labels:
[1] = target: Induced myeloid leukemia cell differentiation protein Mcl-1 (Homo sapiens, UniProt Q07820); type: functional
[2] = target: Tyrosyl-DNA phosphodiesterase 2 (Homo sapiens, UniProt O95551); test: human TDP2 enzyme inhibitors, dose response, biochemical, epi absorbance, IC50 (AID 743297)
Genome polyprotein = Genome polyprotein (dengue virus type 2, UniProt P29990); test: Dengue-2 NS5 methyltransferase inhibitors, primary screen, biochemical, confirmation dose response (AID 588689); type: functional
Chain of Genome polyprotein (P29990 2492-3391 limits assumed): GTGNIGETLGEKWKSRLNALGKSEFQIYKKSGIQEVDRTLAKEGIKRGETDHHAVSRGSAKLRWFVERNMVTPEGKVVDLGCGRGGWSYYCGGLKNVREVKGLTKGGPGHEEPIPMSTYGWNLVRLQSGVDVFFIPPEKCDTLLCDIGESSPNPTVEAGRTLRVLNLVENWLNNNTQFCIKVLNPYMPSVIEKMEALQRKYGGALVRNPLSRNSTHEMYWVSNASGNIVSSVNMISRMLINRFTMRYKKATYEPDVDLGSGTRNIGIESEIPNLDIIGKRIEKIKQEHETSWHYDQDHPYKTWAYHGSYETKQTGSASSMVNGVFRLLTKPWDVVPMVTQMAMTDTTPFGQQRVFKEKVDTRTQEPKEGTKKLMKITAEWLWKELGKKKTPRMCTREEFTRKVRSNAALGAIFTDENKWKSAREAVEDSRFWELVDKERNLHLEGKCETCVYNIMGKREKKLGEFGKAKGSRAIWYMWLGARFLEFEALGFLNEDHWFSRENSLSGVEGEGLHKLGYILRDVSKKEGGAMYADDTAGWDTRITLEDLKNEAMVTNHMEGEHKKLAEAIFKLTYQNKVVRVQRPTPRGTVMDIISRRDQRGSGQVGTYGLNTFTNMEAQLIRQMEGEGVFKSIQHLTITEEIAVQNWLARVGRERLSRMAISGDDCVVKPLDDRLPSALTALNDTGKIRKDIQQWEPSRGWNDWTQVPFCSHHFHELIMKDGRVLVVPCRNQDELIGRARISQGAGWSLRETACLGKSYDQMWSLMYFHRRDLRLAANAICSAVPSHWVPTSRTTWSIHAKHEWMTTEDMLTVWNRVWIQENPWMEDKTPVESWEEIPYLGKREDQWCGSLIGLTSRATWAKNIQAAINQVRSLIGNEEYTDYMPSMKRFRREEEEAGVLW

Beta-arrestin-1 = Beta-arrestin-1 (Homo sapiens, UniProt P49407); test: inhibitors of arrestin peptide binding to AP2, dose response, biochemical, cherry pick 1, beta2-adaptin appendage, flow cytometry (AID 588783); type: functional
Chain of Beta-arrestin-1 (P49407 whole entry, the tested form may be a part): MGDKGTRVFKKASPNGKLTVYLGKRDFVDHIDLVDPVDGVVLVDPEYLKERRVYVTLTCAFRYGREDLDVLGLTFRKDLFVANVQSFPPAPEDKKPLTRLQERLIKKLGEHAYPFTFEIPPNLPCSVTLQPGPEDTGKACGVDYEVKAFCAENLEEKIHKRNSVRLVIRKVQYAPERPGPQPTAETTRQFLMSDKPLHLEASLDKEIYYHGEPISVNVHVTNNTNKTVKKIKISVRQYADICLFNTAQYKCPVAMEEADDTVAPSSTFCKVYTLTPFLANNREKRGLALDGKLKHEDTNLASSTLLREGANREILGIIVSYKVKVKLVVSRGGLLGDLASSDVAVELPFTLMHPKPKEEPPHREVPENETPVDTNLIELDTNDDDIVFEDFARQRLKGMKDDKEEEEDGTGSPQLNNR

[3] = CAL PDZ domain peptide-binding inhibitors, dose response, biochemical, fluorescence polarization, untagged CAL PDZ, cherry-pick (AID 602267); type: functional
[4] = target: Heat shock protein HSP 90-alpha (Homo sapiens, UniProt P07900); test: Luminescence-based dose response biochemical high throughput screening assay for inhibitors of the Heat Shock Protein 90 (HSP90). [Related pubchem assays: 1831 (Summary AID.), 1846 (Confirmation screen.), 1789 (Primary screen.)]
[5] = target: Histone-lysine N-methyltransferase NSD2 (Homo sapiens, UniProt O96028); type: biochemical
Chain of Histone-lysine N-methyltransferase NSD2 (O96028 whole entry): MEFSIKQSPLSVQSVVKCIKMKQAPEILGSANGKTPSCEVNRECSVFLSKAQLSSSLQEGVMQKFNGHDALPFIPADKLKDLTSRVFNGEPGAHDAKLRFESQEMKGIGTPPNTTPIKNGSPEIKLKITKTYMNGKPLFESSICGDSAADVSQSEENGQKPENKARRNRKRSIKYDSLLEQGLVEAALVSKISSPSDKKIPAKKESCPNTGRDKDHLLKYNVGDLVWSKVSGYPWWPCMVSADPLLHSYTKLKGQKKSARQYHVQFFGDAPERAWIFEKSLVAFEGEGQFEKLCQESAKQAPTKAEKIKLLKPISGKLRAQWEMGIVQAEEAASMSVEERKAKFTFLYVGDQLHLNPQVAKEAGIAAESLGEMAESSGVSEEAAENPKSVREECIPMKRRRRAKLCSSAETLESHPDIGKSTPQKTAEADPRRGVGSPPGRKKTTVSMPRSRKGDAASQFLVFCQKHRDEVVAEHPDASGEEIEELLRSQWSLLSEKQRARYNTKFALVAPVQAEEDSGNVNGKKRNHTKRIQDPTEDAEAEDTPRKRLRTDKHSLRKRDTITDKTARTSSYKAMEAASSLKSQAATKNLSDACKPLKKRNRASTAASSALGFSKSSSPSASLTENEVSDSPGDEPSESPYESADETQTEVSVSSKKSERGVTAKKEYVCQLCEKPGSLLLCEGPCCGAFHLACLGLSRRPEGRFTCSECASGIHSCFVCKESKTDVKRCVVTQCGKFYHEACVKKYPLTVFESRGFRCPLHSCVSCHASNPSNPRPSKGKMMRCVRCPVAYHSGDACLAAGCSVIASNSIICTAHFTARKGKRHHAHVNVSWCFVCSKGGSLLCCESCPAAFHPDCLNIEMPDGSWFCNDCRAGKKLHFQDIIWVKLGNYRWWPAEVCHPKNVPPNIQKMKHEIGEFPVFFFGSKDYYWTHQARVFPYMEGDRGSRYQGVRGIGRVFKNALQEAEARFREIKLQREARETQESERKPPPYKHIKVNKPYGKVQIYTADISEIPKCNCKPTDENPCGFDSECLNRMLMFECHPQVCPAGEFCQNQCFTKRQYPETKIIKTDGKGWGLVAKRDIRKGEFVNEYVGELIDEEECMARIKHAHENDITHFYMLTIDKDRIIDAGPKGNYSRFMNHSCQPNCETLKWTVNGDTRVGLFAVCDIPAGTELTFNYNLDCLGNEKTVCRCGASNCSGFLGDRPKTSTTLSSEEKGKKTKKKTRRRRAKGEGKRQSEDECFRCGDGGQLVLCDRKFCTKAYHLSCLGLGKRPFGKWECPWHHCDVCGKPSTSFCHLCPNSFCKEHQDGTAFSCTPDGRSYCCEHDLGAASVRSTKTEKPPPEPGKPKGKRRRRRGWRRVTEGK

Nonstructural protein 1 = Nonstructural protein 1 (Influenza A virus, UniProt Q194T2); type: functional, Influenza A virus (A/California/07/2009(H1N1))
Chain of Nonstructural protein 1 (Q194T2 whole entry): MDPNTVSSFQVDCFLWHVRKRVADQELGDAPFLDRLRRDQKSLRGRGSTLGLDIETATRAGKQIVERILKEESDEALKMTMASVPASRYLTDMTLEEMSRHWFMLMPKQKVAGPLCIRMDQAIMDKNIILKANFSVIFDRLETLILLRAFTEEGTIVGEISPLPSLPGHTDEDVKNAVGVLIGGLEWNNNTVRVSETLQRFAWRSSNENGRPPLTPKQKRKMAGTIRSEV

Chain of Tyrosyl-DNA phosphodiesterase 2 (O95551 whole entry): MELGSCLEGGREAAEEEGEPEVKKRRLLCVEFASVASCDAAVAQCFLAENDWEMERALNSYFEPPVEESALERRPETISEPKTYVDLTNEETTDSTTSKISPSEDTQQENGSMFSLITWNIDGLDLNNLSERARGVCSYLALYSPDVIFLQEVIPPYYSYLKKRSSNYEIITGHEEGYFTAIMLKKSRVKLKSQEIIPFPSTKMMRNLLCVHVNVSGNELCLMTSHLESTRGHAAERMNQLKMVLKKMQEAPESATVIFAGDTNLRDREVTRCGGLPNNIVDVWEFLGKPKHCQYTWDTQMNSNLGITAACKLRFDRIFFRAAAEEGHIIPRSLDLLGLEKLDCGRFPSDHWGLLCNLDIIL
Chain of Induced myeloid leukemia cell differentiation protein Mcl-1 (Q07820 whole entry): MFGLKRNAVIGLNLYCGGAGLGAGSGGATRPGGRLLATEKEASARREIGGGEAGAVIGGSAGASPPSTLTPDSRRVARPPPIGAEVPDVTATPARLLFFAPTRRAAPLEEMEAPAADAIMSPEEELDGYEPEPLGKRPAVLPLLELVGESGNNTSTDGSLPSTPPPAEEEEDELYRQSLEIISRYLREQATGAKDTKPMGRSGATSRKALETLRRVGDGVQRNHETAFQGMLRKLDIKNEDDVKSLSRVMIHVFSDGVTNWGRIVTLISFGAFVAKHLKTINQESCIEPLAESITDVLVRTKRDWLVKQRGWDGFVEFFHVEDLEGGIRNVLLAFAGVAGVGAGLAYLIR

NC(=O)C1CCN(C2=C(Cl)C(=O)c3ccccc3C2=O)CC1
IC50 [1]: > 54 µM (not active)
IC50 [2]: 13.6 µM (inactive)
IC50 (Genome polyprotein): 26 µM (active)
IC50 (Beta-arrestin-1): 22.2 µM (inactive)

O=c1c2ccccc2nc(/C=C/c2cccnc2)n1Cc1ccccc1
AC50 [3]: 91.1 µM (active)

COC(=O)c1ccccc1NC1=C/C(=N\S(=O)(=O)c2ccc(C(=O)O)cc2)c2ccccc2C1=O
IC50 [4]: 1.26 µM (active)
AC50 [5]: 0.557 µM (active)
IC50 (Nonstructural protein 1): 31.8 µM (active)
